Results published in PubChem BioAssay AID1845215 (Molecular Pharmacology Branch, DTP, NCI, 2023).

Test system: SW 1271 complex tumor spheroid viability
Assay: Anticancer human tumor SW 1271 cell line growth inhibition;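 note: spheroids exposed to agents for seven days before readout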;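 for viability, T/C: percent of DMSO vehicle control luminescence so 100% = vehicle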
Details: for IC50: curve of first compound; for viability, T/C: stronger effect = lower value; active = viability on the fitted dose curve at most 10% of control; inactive = the rest
Method in brief: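 Complex spheroids of malignant cells with endothelial cells and mesenchymal stem cells; agents alone or combined, from near clinical Cmax (or 10 microM if unknown) down in half-log steps, 0.25% DMSO final.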

[1] = second compound 30 pM, first compound 0.0316 µM
[2] = second compound 30 pM, first compound 0.1 µM
[3] = second compound 30 pM, first compound 0.316 µM
[4] = second compound 30 pM, first compound 1 µM
[5] = second compound 30 pM, first compound 3.16 µM
[6] = second compound 30 pM, first compound 10 µM
[7] = second compound 94.9 pM, first compound 0.0316 µM
[8] = second compound 94.9 pM, first compound 0.1 µM
[9] = second compound 94.9 pM, first compound 0.316 µM
[10] = second compound 94.9 pM, first compound 1 µM
[11] = second compound 94.9 pM, first compound 3.16 µM
[12] = second compound 94.9 pM, first compound 10 µM
[13] = second compound 0.0003 µM, first compound 0.0316 µM
[14] = second compound 0.0003 µM, first compound 0.1 µM
[15] = second compound 0.0003 µM, first compound 0.316 µM
[16] = second compound 0.0003 µM, first compound 1 µM
[17] = second compound 0.0003 µM, first compound 3.16 µM
[18] = second compound 0.0003 µM, first compound 10 µM
[19] = second compound 0.000949 µM, first compound 0.0316 µM
[20] = second compound 0.000949 µM, first compound 0.1 µM
[21] = second compound 0.000949 µM, first compound 0.316 µM
[22] = second compound 0.000949 µM, first compound 1 µM
[23] = second compound 0.000949 µM, first compound 3.16 µM
[24] = second compound 0.000949 µM, first compound 10 µM
[25] = second compound 0.003 µM, first compound 0.0316 µM
[26] = second compound 0.003 µM, first compound 0.1 µM
[27] = second compound 0.003 µM, first compound 0.316 µM
[28] = second compound 0.003 µM, first compound 1 µM
[29] = second compound 0.003 µM, first compound 3.16 µM
[30] = second compound 0.003 µM, first compound 10 µM

CC(C)n1c(=O)n(C)c2cnc3cc(F)c(-c4ccc(OCCCN5CCCCC5)nc4)cc3c21 + COc1cc2c(cc1O)CCNC21CSC2c3c(OC(C)=O)c(C)c4c(c3C(COC1=O)N1C(O)C3Cc5cc(C)c(OC)c(O)c5C(C21)N3C)OCO4
< 31.6 nM: IC50 (second compound 94.9 pM) | IC50 (second compound 0.0003 µM) | IC50 (second compound 0.000949 µM) | IC50 (second compound 0.003 µM)
inactive: viability, T/C [1] 65% | viability, T/C [2] 57.5% | viability, T/C [3] 53.4% | viability, T/C [4] 45.6% | viability, T/C [5] 51.8% | viability, T/C [6] 29.3% | viability, T/C [7] 29.6% | viability, T/C [8] 28.7% | viability, T/C [9] 22.3% | viability, T/C [10] 24.2% | viability, T/C [11] 20.9% | viability, T/C [12] 15.8% | viability, T/C [13] 28.5% | viability, T/C [14] 33.3% | viability, T/C [15] 24.7% | viability, T/C [16] 24.2% | viability, T/C [17] 19.1% | viability, T/C [18] 12.9%
active: viability, T/C [19] 4.24% | viability, T/C [20] 3.92% | viability, T/C [21] 2.81% | viability, T/C [22] 1.61% | viability, T/C [23] 1.37% | viability, T/C [24] 1.05% | viability, T/C [25] 0.12% | viability, T/C [26] 0.11% | viability, T/C [27] 0.09% | viability, T/C [28] 0.1% | viability, T/C [29] 0.1% | viability, T/C [30] 0.16%
931 nM: IC50 (second compound 30 pM)

COc1ccc([C@@H](O)c2cc(-c3ncnc4cc(N5CCOCC5)ccc34)c(F)cc2Cl)nn1 + COc1cc2c(cc1O)CCNC21CSC2c3c(OC(C)=O)c(C)c4c(c3C(COC1=O)N1C(O)C3Cc5cc(C)c(OC)c(O)c5C(C21)N3C)OCO4
1080 nM: IC50 (second compound 30 pM)
< 31.6 nM: IC50 (second compound 0.0003 µM) | IC50 (second compound 0.000949 µM) | IC50 (second compound 0.003 µM)
active: viability, T/C [6] 6.57% | viability, T/C [12] 4.84% | viability, T/C [17] 1.97% | viability, T/C [18] 0.12% | viability, T/C [19] 2.95% | viability, T/C [20] 2.6% | viability, T/C [21] 1.24% | viability, T/C [22] 0.04% | viability, T/C [23] 0.02% | viability, T/C [24] 0.1% | viability, T/C [25] 0.1% | viability, T/C [26] 0.08% | viability, T/C [27] 0.08% | viability, T/C [28] 0.08% | viability, T/C [29] 0.09% | viability, T/C [30] 0.15%
inactive: viability, T/C [1] 84.9% | viability, T/C [2] 86.9% | viability, T/C [3] 77.4% | viability, T/C [4] 51.1% | viability, T/C [5] 21.7% | viability, T/C [7] 71.1% | viability, T/C [8] 51.8% | viability, T/C [9] 39.6% | viability, T/C [10] 33.5% | viability, T/C [11] 25.9% | viability, T/C [13] 35.7% | viability, T/C [14] 33.3% | viability, T/C [15] 31.1% | viability, T/C [16] 17.6%
168 nM: IC50 (second compound 94.9 pM)
